Experimental data: ChEMBL document CHEMBL1938379, “Capture hydrolysis signals in the microsomal stability assay: molecular mechanisms of the alkyl ester drug and prodrug metabolism” (Bioorg Med Chem Lett, 2012)

Experiment: Clearance in human liver microsomes at 1 uM measured after 60 mins by HPLC analysis
Conditions: liver microsomes

Row | SMILES | microsomal CLint at 1 h, 1 µM [µL/min/mg]
1 | COC(=O)C1=C(C)NC(C)=C(C(=O)OC(C)(C)CN(C)CCC(c2ccccc2)c2ccccc2)C1c1cccc([N+](=O)[O-])c1 (centres undefined) [LERCANIDIPINE] | 125
2 | COC(=O)C1=C(C)NC(C)=C(C(=O)OC(C)C)C1c1cccc2nonc12 (centres undefined) [ISRADIPINE] | > 300
3 | COC(=O)C1=C(C#N)NC(C)=C(C(=O)OC(C)C)C1c1cccc([N+](=O)[O-])c1 (centres undefined) [NILVADIPINE] | 205
4 | COC(=O)[C@H]1[C@H]2C[C@@H]3c4[nH]c5cc(OC)ccc5c4CCN3C[C@H]2C[C@@H](OC(=O)c2cc(OC)c(OC)c(OC)c2)[C@@H]1OC [RESERPINE] | 18.3
5 | CCOC(=O)[C@H](CCc1ccccc1)N[C@@H](C)C(=O)N1Cc2cc(OC)c(OC)cc2C[C@H]1C(=O)O [MOEXIPRIL] | < 8
6 | COC(=O)C(c1ccccc1)C1CCCCN1 (centres undefined) [METHYLPHENIDATE] | 11.1
7 | CCOC(=O)C1=C(C)NC(C)=C(C(=O)OC)C1c1cccc([N+](=O)[O-])c1 (centres undefined) [NITRENDIPINE] | 166
8 | C#C[C@H](CC(=O)OCC)NC(=O)CCC(=O)Nc1ccc(C(=N)N)cc1 [XEMILOFIBAN] | < 8
9 | CCOC(=O)C1(c2ccccc2)CCCN(C)CC1 (centres undefined) [ETHOHEPTAZINE] | 22.6
10 | CCOC(=O)c1ncn2c1CN(C)C(=O)c1cc(F)ccc1-2 [FLUMAZENIL] | 10.6
11 | COCCOC(=O)C1=C(C)NC(C)=C(C(=O)OC(C)C)C1c1cccc([N+](=O)[O-])c1 (centres undefined) [NIMODIPINE] | > 300
12 | CC1=C(C(=O)OC(C)C)C(c2cccc([N+](=O)[O-])c2)C(C(=O)OC2CN(C(c3ccccc3)c3ccccc3)C2)=C(N)N1 (centres undefined) [AZELNIDIPINE] | 33.9
13 | CCOC(=O)/C=C1\SC(N2CCCCC2)C(=O)N1C (centres undefined) [ETOZOLIN] | 20.5
14 | CCOC(=O)[C@H](CCc1ccccc1)N[C@@H](C)C(=O)N1[C@H](C(=O)O)C[C@@H]2CCC[C@@H]21 | 46.1
15 | CCOC(=O)[C@H](CCc1ccccc1)N[C@@H](C)C(=O)N1Cc2ccccc2C[C@H]1C(=O)O | 8.5
16 | CCOC(=O)COc1ccc2c(=O)cc(-c3ccccc3)oc2c1 [EFLOXATE] | > 300
17 | COC(=O)[C@@H]1CC2=CC(=O)CC[C@]2(C)[C@@]23O[C@@H]2C[C@@]2(C)[C@@H](CC[C@@]24CCC(=O)O4)[C@H]13 [EPLERENONE] | 7.9
18 | CCOC(=O)c1c(N)sc2c1CCN(Cc1ccccc1)C2 [TINORIDINE] | 71.2
19 | CCC[C@H](N[C@@H](C)C(=O)N1[C@H](C(=O)O)C[C@@H]2CCCC[C@@H]21)C(=O)OCC [PERINDOPRIL] | 10.7
20 | CCOC(=O)COc1ccc2c(C)c(CCN(CC)CC)c(=O)oc2c1 [CHROMONAR] | > 300
21 | CCOC(=O)[C@H](CCc1ccccc1)N[C@H]1CS[C@H](c2cccs2)CN(CC(=O)O)C1=O [TEMOCAPRIL] | 133
22 | COC(=O)C1=C(C)NC(C)=C(C(=O)OCCN2CCN(C(c3ccccc3)c3ccccc3)CC2)C1c1cccc([N+](=O)[O-])c1 (centres undefined) [MANIDIPINE 6300] | 93.4
23 | CC[C@]12CCCN3CCc4c(n(c5ccccc45)[C@@](O)(C(=O)OC)C1)[C@@H]32 [VINCAMINE] | 66
24 | COC(=O)C1=C(C)NC(C)=C(C(=O)OCC(C)C)C1c1ccccc1[N+](=O)[O-] (centres undefined) [NISOLDIPINE] | > 300
25 | CCOC(=O)[C@H](CCc1ccccc1)N[C@H]1CCc2ccccc2N(CC(=O)O)C1=O [BENAZEPRIL] | 52.5
26 | COC(=O)[C@@H]1[C@H]2C[C@H]3c4[nH]c5ccccc5c4CCN3C[C@@H]2CC[C@@H]1O [YOHIMBINE] | 34.4
27 | CCOC(=O)[C@H](CCc1ccccc1)N[C@@H](C)C(=O)N1CC2(C[C@H]1C(=O)O)SCCS2 | < 8
28 | CCOC(=O)C1=C(C)NC(C)=C(C(=O)OCC)C1c1ccccc1/C=C/C(=O)OC(C)(C)C [LACIDIPINE] | 99.2

Same assay, conditions: microsomes

Row | SMILES | microsomal CLint at 1 h, 1 µM [µL/min/mg]
29 | COC(=O)[C@H](c1ccccc1Cl)N1CCc2sccc2C1 [CLOPIDOGREL] | > 300
